Assay in all cases: NCI anticancer screen, dose series, 48 h
The subject of experiment [1] is EKVX NSCLC.
The subject of experiment [2] is HCC-2998 colon.
The subject of experiment [3] is HOP-62 NSCLC.
For experiment [4], the system named is LOX IMVI melanoma.
Experiment [5] concerns M14 melanoma.
The subject of experiment [6] is MDA-MB-231 breast.
Experiment [7] deals with NCI-H23 lung.
For experiment [8], the system named is OVCAR-4 ovarian.
In experiment [9] the test system is OVCAR-8 ovarian.
Experiment [10] has as its system TK-10 renal.

Structures are written as SMILES. Several values for one entry are separate records, joined by “and”; a condition that tells them apart may be missing. Identical values can stand only once.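 Grown in 96-well plates, cells were treated for 48 hours with each compound at five concentrations. Insufficient inhibition: endpoint recorded as highest concentration tested. GI50 = concentration required for 50% inhibition of growth. TGI: concentration producing complete growth inhibition.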

Among the data in PubChem BioAssay (NCI) are GI50 and TGI values, retold here.

In the case of `N[C@H](C(=O)O)[C@@H]1CC(Cl)=NO1`, the GI50 in experiment [1] is 11.5 µM; in experiment [3], 6.27 µM; in [4], 3.28 µM; in experiment [5], 38.9 µM; in [7], 38.2 µM; in experiment [9] it was 22.2 µM. Besides, the GI50 in [10] was 34.5 µM. In addition, the TGI in experiment [1] was 303 µM; in [2] it was 329 µM; in [3], 170 µM; in experiment [4], over 1000 µM; in [5], over 1000 µM; in experiment [6], over 1000 µM. For the same compound, the TGI was over 1000 µM in [7], over 653 µM in [8], 502 µM in [9] and over 609 µM in experiment [10].

Regarding `COc1ccc2c(c1)OC1=C(C(=O)OC1)C2c1cc(OC)c2c(c1)OCCO2` (configuration not stated), the GI50 in [1] is 0.0682 µM; in [2], 0.0781 µM; in experiment [3], 0.0512 µM; in experiment [4], 0.0802 µM; in experiment [5], 0.0566 µM; in experiment [6], 0.156 µM. For the same compound, the GI50 was 0.0454 µM in experiment [7], 0.173 µM in experiment [8], 0.0712 µM in [9] and 1.54 µM in experiment [10]. Further, the TGI in experiment [1] is over 100 µM; in experiment [3], over 100 µM; in experiment [4], over 100 µM; in experiment [5], over 100 µM; in experiment [6] it was over 94.6 µM; in [7], over 100 µM. In addition, the TGI in experiment [8], in experiment [9] and in [10] was over 100 µM each time.

Turning to `O=C(Oc1ccc[nH]c1=O)c1cc([N+](=O)[O-])cc([N+](=O)[O-])c1`, the GI50 in experiment [1], in experiment [2], in experiment [3], in experiment [4], in experiment [5] and in experiment [6] was over 100 µM each time. Moreover, the GI50 in experiment [7], in experiment [8], in [9] and in experiment [10] was over 100 µM in each case. For the same compound, the TGI in experiment [1], in experiment [2], in experiment [3], in [4], in experiment [5] and in [6] was over 100 µM throughout. Also, the TGI in experiment [7], in experiment [8], in experiment [9] and in experiment [10] was over 100 µM in each case.

For `Cc1ccc(S(=O)(=O)N=Nc2c(O)[nH]c3cc(O)c(C(=O)O)cc23)cc1`, the TGI in [1], in [2], in [3], in experiment [4], in experiment [5] and in experiment [6] was over 100 µM each time. In addition, the TGI in experiment [7], in experiment [8], in [9] and in experiment [10] was over 100 µM throughout.

`CNC(=O)OCc1c(COC(=O)NC)c(-c2ccc(-c3ccccc3)cc2)n(C)c1C`: the TGI came to 11.1 µM in experiment [1]; 13.1 µM in experiment [2]; 18.8 µM in experiment [3]; 11.7 µM in [4]; 6.84 µM in [5]; 10.2 µM in experiment [6]. Besides, the TGI in experiment [7] amounted to 10.2 µM; in experiment [8], 10.9 µM; in [9], 10.4 µM; in experiment [10], 15.4 µM.

Consider `C[C@]12CCc3sc(Nc4ccc(OC(F)(F)F)cc4)nc3C1=CC[C@@H]1[C@@H]2CC[C@]2(C)C(=O)CC[C@@H]12`, for which the GI50 in experiment [1] is 2.63 µM; in [2], 5.32 µM; in experiment [3], 1.92 µM; in [4], 1.74 µM; in experiment [5] it was 3.29 µM; in experiment [6], 2.42 µM. The GI50 is 3.73 µM in experiment [7], 3.31 µM in [8], 3.49 µM in [9] and 4.82 µM in experiment [10]. The TGI was found to be 17.4 µM in [1]; 18.6 µM in [2]; 4.19 µM in experiment [3]; 3.18 µM in [4]; 8.72 µM in experiment [5]; 7.84 µM in [6]. Besides, the TGI in experiment [7] was 21.7 µM; in experiment [8] it was 25.8 µM; in experiment [9], 25 µM; in experiment [10], 32 µM.

`Cc1cc(N(CC(C)Br)CC(C)Br)ccc1N=Nc1ccccc1C(=O)O` (configuration not stated): the TGI in experiment [1] was found to be 21.8 µM; in experiment [2] it was 6.19 µM; in experiment [3], 22.8 µM; in [4], 31.9 µM; in [5] it was 20.1 µM; in [6] it was 32.8 µM. Moreover, the TGI in [7] was 18.1 µM; in experiment [8], 5.53 µM; in experiment [9] it was over 52.4 µM; in [10], 24.4 µM.

`CCCCCCCCn1ccc2cc(NC(=O)Cn3cc(CN4CCCCCC4)nn3)ccc21`: the GI50 in [1] is 1.68 µM; in experiment [2] it was 1.78 µM; in [3] it was 1.64 µM; in [4] it was 1.7 µM; in experiment [5] it was 1.67 µM; in experiment [6], 1.74 µM. The GI50 was 1.76 µM in experiment [7], 1.59 µM in [8], 1.87 µM in experiment [9] and 1.63 µM in [10]. The TGI was determined as 3.43 µM in [1]; 3.35 µM in experiment [2]; 3.14 µM in [3]; 3.17 µM in experiment [4]; 3.23 µM in [5]; 3.47 µM in experiment [6]. Further, the TGI came out at 3.77 µM in [7], 3.13 µM in experiment [8], 3.73 µM in [9] and 3.06 µM in experiment [10].

For `CCCCCCCCCCCCCCCCCCOC[C@H](COP(=O)(O)O[C@H]1[C@H](O)[C@@H](O)[C@H](O)C[C@H]1O)OC`, the GI50 is 82.8 µM and 13.3 µM in [1]; 24.2 µM and 6.97 µM in experiment [2]; > 100 µM and 15.7 µM in [3]; 47.1 µM and 13.4 µM in experiment [4]; > 100 µM and 12 µM in experiment [5]; > 100 µM and 13.6 µM in experiment [6]. For the same compound, the GI50 was > 100 µM and 19.3 µM in experiment [7]; > 100 µM and 16 µM in experiment [8]; > 100 µM and 16.9 µM in experiment [9]; 41.8 µM and 7.74 µM in [10]. Further, the TGI is > 100 µM and 26.8 µM in experiment [1]; > 100 µM and 20.5 µM in experiment [2]; > 100 µM and 41.5 µM in experiment [3]; > 100 µM and 27.3 µM in [4]; > 100 µM and 24.7 µM in [5]; > 100 µM and 27.6 µM in [6]. The TGI in [7] was > 100 µM and 35 µM; in [8] it was > 100 µM and 36.8 µM; in experiment [9], > 100 µM and 31.8 µM; in experiment [10], > 100 µM and 20.7 µM.

In the case of `COCCOC(=O)C1=C(O)c2ccccc2S(=O)(=O)N1C`, the TGI in experiment [1], in [2], in experiment [3], in [4], in experiment [5] and in experiment [6] was over 100 µM in each case. The TGI in [7], in experiment [8], in [9] and in experiment [10] was over 100 µM in each case.

As to `O=C(O)c1ccc(CN2CCC(CN[C@@H]3C[C@H]3c3ccccc3)CC2)cc1`, the GI50 in [1], in experiment [2], in [3], in experiment [4], in [5] and in experiment [6] was over 100 µM in each case. The GI50 in [7], in [8], in [9] and in [10] was over 100 µM in each case. Further, the TGI in experiment [1], in [2], in experiment [3], in experiment [4], in [5] and in experiment [6] was over 100 µM in each case. The TGI in experiment [7], in [8], in experiment [9] and in experiment [10] was over 100 µM in each case.

For the compound `Nc1ncnc2c1ncn2C1C=C(CO)C(O)C1O` (configuration not stated), the TGI in experiment [1] is over 100 µM; in experiment [2], over 77.3 µM; in experiment [3], over 100 µM; in [4], 45.4 µM; in experiment [5], over 100 µM; in experiment [6] it was 52.5 µM. Also, the TGI in [7] is 35.4 µM; in [8], over 56.8 µM; in experiment [9], over 100 µM; in experiment [10], over 84.9 µM.

Take `COc1ccc(C(C#N)NC23CC4CC(CC(C4)C2)C3)cc1` (configuration not stated): the TGI in experiment [1], in [2], in experiment [3], in experiment [4], in [5] and in [6] was over 100 µM in each case. For the same compound, the TGI in experiment [7], in [8], in [9] and in experiment [10] was over 100 µM each time.

Take `Cc1ccc(C)c(NC(=O)CC2Sc3ccccc3NC2=O)c1` (configuration not stated): the TGI in experiment [1] was over 100 µM; in [2], 34.8 µM and > 100 µM; in experiment [3], 34.1 µM and 48.1 µM; in [4], over 100 µM; in experiment [5] it was over 100 µM; in [6], 28.9 µM and > 65.6 µM. The TGI was 38.4 µM and > 96.2 µM in experiment [7]; 24 µM and 57.7 µM in [8]; 27 µM and 45.3 µM in [9]; 35.5 µM and > 87.3 µM in experiment [10]. Moreover, the GI50 is 19 µM and 61.9 µM in experiment [2]; 34.5 µM and > 81.5 µM in experiment [4]; 5.08 µM and 34.8 µM in experiment [6]; 17.8 µM and 47.3 µM in [7]; 14.8 µM and 31.3 µM in [8]; 18.3 µM and 41.9 µM in experiment [10].

`Cc1ccc(C2=C(c3ccc(C)cc3)C3(c4ccc(C)cc4)C4C(=O)OC(=O)C4C2(c2ccc(C)cc2)S3=O)cc1` (configuration not stated): the GI50 in [1] is 42 µM; in experiment [2], 21.5 µM; in experiment [3], 16.4 µM; in [4], 18.5 µM; in experiment [5] it was 9.7 µM; in experiment [6], 15.6 µM. Further, the GI50 in [7] was 18.2 µM; in [8] it was 59.6 µM; in [9], 25.7 µM; in [10], 38.8 µM. Also, the TGI in experiment [1] is over 100 µM; in [2] it was 55.5 µM; in [3], 42.5 µM; in experiment [4] it was 73.7 µM; in [5], 32.8 µM; in experiment [6], 45.6 µM. Further, the TGI is 41.8 µM in [7], over 100 µM in [8], over 100 µM in experiment [9] and over 100 µM in [10].

`N/N=C\c1c2ccccc2c(=O)n2c1oc1ccccc12`: the GI50 is 10.2 µM in experiment [1]; 16.5 µM in experiment [2]; 16.9 µM in [3]; 16.4 µM in [4]; 27.3 µM in experiment [5]; 10.8 µM in [6]. Besides, the GI50 in experiment [7] is 15.7 µM; in experiment [8], 13.1 µM; in experiment [9], 19.4 µM; in experiment [10] it was 18.7 µM. The TGI amounted to 26.2 µM in experiment [1]; 30.5 µM in experiment [2]; 32.9 µM in experiment [3]; 29.9 µM in [4]; 83.6 µM in experiment [5]; 25 µM in [6]. Moreover, the TGI in experiment [7] is 29.9 µM; in [8], over 100 µM; in [9], 49.4 µM; in experiment [10] it was 34.3 µM.

Consider `Nc1n[nH]c2cccc(C#Cc3cccc(NC(=O)c4cccc(C(F)(F)F)c4)c3)c12`, for which the GI50 in experiment [1] is 6.2 µM; in experiment [2], 2.43 µM; in [3], 3.41 µM; in [4] it was 1.53 µM; in experiment [5], 1.88 µM; in experiment [6] it was 1.5 µM. Further, the GI50 in experiment [7] is 2.86 µM; in experiment [8], 3.67 µM; in [9], 4.82 µM; in [10], 5.61 µM. The TGI in experiment [1] was determined as 19.8 µM; in [2], 7.31 µM; in experiment [3], 13.9 µM; in experiment [4] it was 3.41 µM; in experiment [5], 10 µM; in [6], 6.5 µM. For the same compound, the TGI was 15.8 µM in [7], 17.7 µM in experiment [8], 16.6 µM in experiment [9] and 13.7 µM in experiment [10].
